Measured values taken from paper PMC5816626, “A multitarget approach to drug discovery inhibiting Mycobacterium tuberculosis PyrG and PanK” (Scientific Reports, 2018).
Converted amounts (≈) assume the structure as drawn.

Tests used:
Type in all cases: cell-based, Mycobacterium tuberculosis
[1] = tested on: M. tuberculosis 81.10 mutant (ethA Δ1109–1137)
[2] = tested on: M. tuberculosis 88.2 mutant (coaA A620G (Q207R))
[3] = tested on: M. tuberculosis 82.21 mutant (ethA Δ1283–4, coaA A620G (Q207R))
[4] = tested on: M. tuberculosis 88.3, 88.4, 88.5, 88.9, 88.11, 88.12 mutants (coaA A620G (Q207R))
[5] = tested on: M. tuberculosis 88.1 mutant (coaA A620G (Q207R))

`CCc1cc(C(N)=S)ccn1` [Ethionamide, reference compound] gave an MIC [1] of 10 µg/mL (≈ 60.2 µM), an MIC [2] of 1 µg/mL (≈ 6.02 µM) and an MIC [3] of 10 µg/mL (≈ 60.2 µM). It also gave an MIC [4] of 1 µg/mL (≈ 6.02 µM) and an MIC [5] of 1 µg/mL (≈ 6.02 µM).

With `O=C(CCc1ccccc1)NC(=S)Nc1ccc(N2CCCCC2)cc1` [compound 7904688, 3-phenyl-N-[(4-piperidin-1-ylphenyl)carbamothioyl]propanamide] the MIC [1] was >40 µg/mL, the MIC [2] was 10 µg/mL (≈ 27.2 µM) and the MIC [3] was >40 µg/mL. For the same molecule, the MIC [4] was 10 µg/mL (≈ 27.2 µM) and the MIC [5] was 10 µg/mL (≈ 27.2 µM).

In the case of `Cc1ccc(C(=O)Nc2ccc([N+](=O)[O-])cc2)s1` [compound 7947882, 5-methyl-N-(4-nitrophenyl)thiophene-2-carboxamide], the MIC [1] is reported as >40 µg/mL, the MIC [2] is reported as 2.5 µg/mL (≈ 9.53 µM) and the MIC [3] is reported as >40 µg/mL. For the same molecule, the MIC [4] was 2.5 µg/mL (≈ 9.53 µM) and the MIC [5] was 2.5 µg/mL (≈ 9.53 µM).

With `CC1=CC=C(C(=O)Nc2ccc([N+](=O)[O-])cc2)S1(=O)=O` [compound 11426026] the MIC [1] was 1 µg/mL (≈ 3.4 µM), the MIC [2] was 2.5 µg/mL (≈ 8.5 µM) and the MIC [3] was 2.5 µg/mL (≈ 8.5 µM). The MIC [4] was 2.5 µg/mL (≈ 8.5 µM) and the MIC [5] was 2.5 µg/mL (≈ 8.5 µM).
